Source: patent US20220226321A1, “INHIBITOR OF MNK FOR THE TREATMENT OF NEUROPATHIC PAIN” (Board of Regents, The University of Texas System, priority 2019, published 2022)
Entries after “also recorded” stand apart in the source; their conditions may differ.

What was measured:
[1] = system: cultured mouse DRG neurons; assay: microelectrode array (MEA) recordings of cultured DRG neurons exposed to IL-6; type: cell-based; details: IL-6 100 ng/ml, tomivosertib 25 nM co-treatment
Protocol: Extracellular electrophysiology. Substrate-integrated microelectrode array (MEA) recordings were performed using PDL and laminin pre-treated 12-well MEA plates (Axion Biosystems, USA) and an Axion Maestro recording system. DRG sensory neurons were dissected, dissociated, and seeded as previously described (Moy et al., 2017). […] Cultures were maintained at 37° C., 5% CO2, and ≥90% humidity throughout the recordings. Briefly, 30 min baseline recordings were carried out following a 30 min acclimation period. […] Recordings were then collected continuously for 3 hours. […] Online and offline MEA data analysis was performed using Axion's AxIS, NeuralMetrics Tools, and NeuroExplorer (NeuroExplorer, USA). Physiologically relevant extracellular action potentials were defined as previously described^29.

[2] = system: DRG neurons; assay: whole-cell patch clamp of cultured DRG neurons treated with IL-6 and eFT508; type: cell-based, mouse
Protocol: Phosphorylation of the 5′ cap-binding protein eIF4E by MAPK interacting kinases MNK1/2 is important for nociceptor sensitization and the development of chronic pain. IL-6 induced DRG nociceptor excitability is attenuated in mice lacking eIF4E phosphorylation, in MNK1/2^−/− mice and by the nonselective MNK1/2 inhibitor cercosporamide. […] Dorsal root ganglion (DRG) neurons were cultured from male and female ICR mice, 4-7 weeks old. […] Whole-cell patch clamp recordings were done on small diameter neurons (20-30 pF) to measure membrane excitability in response to ramp depolarization. […] These findings are consistent with a model wherein MNK-eIF4E signaling controls the translation of signaling factors that regulate T-type VGCCs in response to IL-6 treatment.

[3] = system: cultured DRG neurons; assay: Western blot of cultured DRG neurons treated with IFN-α, IFN-β, ISRIB or poly (I:C); type: cell-based, mouse
Protocol: Primary cell culture of mouse DRG neurons and Western blot. Cultured primary DRG neurons were used to test the effects of IFN-α [(300 units (U)/mL] and IFN-β [(300 units (U)/mL] application. For these experiments, mice were anesthetized with isoflurane and killed by decapitation. Then DRGs, from all spinal levels, were dissected and placed in chilled Hanks balanced-salt solution (HBSS, Invitrogen) until processed. Dorsal root ganglia were digested in 1 mg/mL collagenase A (Roche, Mannheim, Germany) for 25 minutes at 37° C. then subsequently digested in a 1:1 mixture of 1 mg/mL collagenase D and papain (Roche) for 20 minutes at 37° C. After this step, dorsal root ganglia were then triturated in a 1:1 mixture of 1 mg/mL trypsin inhibitor (Roche) and bovine serum albumin (BioPharm Laboratories, Bluffdale, Utah), then filtered through a 70 μm cell strainer (Corning, N.Y.). Cells were pelleted then resuspended in DMEM/F12 with GlutaMAX (Thermo Fisher Scientific, MA) containing 10% fetal bovine serum (FBS; Thermo Fisher Scientific), 5 ng/mL NGF, 1% penicillin and streptomycin, and […] to inhibit mitosis of non-neuronal cells and were distributed evenly in a 6-well plate coated with poly-D-lysine (Becton Dickinson, NJ). DRG neurons were maintained in a 37° C. incubator containing 5% CO2 with a media change every other day. On day 6, DRG neurons were treated with either vehicle, IFN-α or IFN-β for 1, 3, 6 and 24 h. Following treatments, cells were rinsed with chilled 1×PBS buffer, harvested in 200 μL of RIPA lysis buffer (50 mM Tris, pH 7.4, 150 mM NaCl, 1 mM EDTA, pH 8.0, and 1% Triton X-100) containing protease and phosphatase inhibitors (Sigma-Aldrich), and then sonicated for 5 seconds. To clear debris, samples were centrifuged at 14,000 rpm for 15 min at 4° C. Ten to 15 μg of protein was loaded into each well and separated by a 10% SDS-PAGE gel. Proteins were transferred to a 0.45 PVDF membrane (Millipore, MA) at 30 V overnight at 4° C. Subsequently, membranes were blocked with 5% non-fat dry milk in 1× Tris buffer solution containing Tween 20 (TTBS) for at least 2 h. Membranes were washed 3 times for 10 minutes each (3×10) in 1×TTBS, then incubated with primary antibodies overnight at 4° C. The following day, membranes were washed 3×10 each then incubated with the corresponding secondary antibodies at room temperature for 1 h. After incubation, membranes were washed with 1×TTBS 3×10 each. Signals were detected using Immobilon Western Chemiluminescent HRP Substrate (Millipore) and then visualized with Bio-Rad ChemiDoc Touch. Membranes were stripped using Restore Western Blot Stripping buffer (Thermo Fisher Scientific) and reprobed with another antibody. Analysis was performed using Image lab 6.0.1 software for Mac (Bio-Rad, Hercules, Calif.).

[4] = system: paclitaxel-treated mice; assay: mechanical paw withdrawal threshold (von Frey) in paclitaxel-induced CIPN; type: in vivo, mouse; details: intrathecal 10 μg, paclitaxel-induced pain
[5] = system: SNI mice; assay: mechanical withdrawal threshold (von Frey) after SNI; type: in vivo, mouse; details: WT and 4EKI, 10 μg i.t., 2 hours after injection on each CPP conditioning day
Protocol: (§1) Surgery. Spared nerve injury (SNI) was performed by the ligation and cutting of the tibial and peroneal branches of the left sciatic nerve trifurcation, leaving the sural branch intact as previously described (Decosterd and Woolf, 2000). Sham surgeries were performed the same way but without cutting the nerve. Mice were allowed to recover for 2 weeks following surgery.
Mechanical withdrawal threshold. Tactile sensitivity was measured by probing the left outer surface of the left hindpaw with a series of calibrated von Frey filaments. Mechanical withdrawal thresholds were assessed in all animals before (baseline) and after (2 weeks) surgery to confirm neuropathy. Withdrawal thresholds were calculated using the up-down method (Chaplan et al., 1994).

[6] = system: SNI mice; assay: conditioned place preference (CPP) after SNI; type: in vivo, mouse; details: 10 μg i.t.
Protocol: Conditioned Place Preference. A previously published CPP protocol from the Walters laboratory protocol was used (Yang et al., 2014). The CPP box consisted of one black and one white chamber connected by a striped chamber. CPP was conducted in a dark room with a single low lumens light source (Maia 69E120-WH). The middle chamber of the CPP box was brightly illuminated to discourage mice from spending time in the middle chamber. […] On day 1 of testing (preconditioning), each mouse was permitted to explore the middle and black (but not white) chambers for 30 minutes. […] On the last day of CPP, each mouse was placed in the middle chamber with unrestricted access to all chambers and video-recorded for 10 min. Data are presented as the percent change in time spent in the drug-paired chambered compared to the control (vehicle or sham for each genotype or surgery). This was calculated by dividing each animal's time spent in the white box by the control average, multiplying by 100 and then subtracting 100.
as §1

[7] = system: mice; assay: mechanical paw withdrawal threshold (von Frey) after type I IFN or poly (I:C); type: in vivo, mouse; details: i.pl. 300 U/25 μL
Protocol: (§2) Behavior. Mice were housed on 12-hour light/dark cycles with food and water available ad libitum. Mice were randomized to groups from multiple cages to avoid using mice from experimental groups that were cohabitating. Sample size was estimated by performing a power calculation using G*Power (version 3.1.9.2). With 80% power and an expectation of d=2.2 effect size in behavioral experiments, and a set to 0.05, the sample size required was calculated as n=6 per group. The inventors therefore sought to have at least n=6 sample in all behavioral experiments. SD (set at 0.3) for the power calculation was based on previously published mechanical threshold data from the inventors' lab (Moy et al., 2017). Animals were habituated for 1 hour to clear acrylic behavioral chambers before beginning the experiment. For intraplantar injections, drugs were injected in a total volume of 25 μL through a 30-gauge needle. For intraperitoneal injections, drugs were administered in a volume of 100 μL Mechanical paw withdrawal thresholds in mice were measured using the up-down method (Chaplan et al., 1994) with calibrated von Frey filaments (Stoelting Company, WoodDale, Ill.). Thermal latency was measured using a Hargreaves device (IITC Life Science) (Hargreaves et al., 1988) with heated glass settings of 29° C., 40% active laser power, and 20 sec cutoff were used. The experimenter was blinded to the genotype of the mice and the drug condition in all experiments.

[8] = system: mice; assay: thermal latency (Hargreaves) after type I IFN or poly (I:C); type: in vivo, mouse; details: i.pl. 300 U/25 μL
Protocol: as §2

[9] = system: eIF4E; assay: immunocytochemistry of p-eIF4E in cultured DRG neurons; type: cell-based, mouse; details: 300 U/mL, one-hour stimulation
Protocol: Immunofluorescence. For primary neuronal cultures, DRG neurons were harvested and cultured for 6 days according to the protocol described above with the exception that cells were distributed evenly on poly-D-lysine-coated 8-well chamber slide with removable wells (cat #12-565-8, Fisher Scientific). After treatments, cells were fixed in ice-cold 10% formalin in 1×PBS for 1 h and processed for immunocytochemistry (ICC). Cells were washed with 1×PBS and permeabilized in 1×PBS containing 10% heat-inactivated normal goat serum (NGS; Atlanta Biologicals, Atlanta, Ga.) and 0.02% Triton X-100 (Sigma) in 1×PBS for 30 min and then blocked in 10% NGS in 1×PBS for 2 h. […] Images were taken using an Olympus FluoView 1200 confocal microscope and analyzed with FIJI for Mac OS X. Images shown are representative of samples taken from 3 separate wells and presented as projections of Z stacks. Using ImageJ, the corrected total cell fluorescence (CTCF) was calculated to determine the intensity of the signal between experimental groups. To do so, the integrated density and the area, as well as the background noise was measured and the CTCF calculated as equal to: the integrated density −(area of selected cell×mean fluorescence of background readings). CTCF values from all experimental treatment groups were normalized to vehicle groups and expressed as normalized CTCF.

IL-6: interleukin-6, a cytokine that evokes pain
spontaneous firing [1]: enhanced spontaneous firing | amplitudes of T-type voltage-gated calcium channels (VGCCs) ([2]; IL-6, eFT508 co-treatment): increased | latency to the first action potential in the ramp protocol ([2]; IL-6, eFT508 pretreatment): lower | action potential firing in response to ramp depolarization ([2]; one hr IL-6, eFT508 pretreatment followed by IL-6): increased action potential firing

O=C(COc1ccc(Cl)cc1)NC1CCC(NC(=O)COc2ccc(Cl)cc2)CC1 (stereo not shown) [ISRIB]
PKR phosphorylation after 24 h IFN-α (300 U/mL) in the presence of ISRIB ([3]; ISRIB 200 nM): no changes | components of the signaling pathways activated after IFN-α or IFN-β application ([3]; ISRIB 200 nM): did not modulate

COc1ccc(-c2ccc3c(N4CCOC[C@@H]4C)nc(N4CCOC[C@@H]4C)nc3n2)cc1CO [AZD8055]
mechanical allodynia / hypersensitivity after first injection [4]: robust reduction in mechanical hypersensitivity; also recorded: relieves mechanical allodynia | mechanical allodynia / hypersensitivity after second (subsequent) injection [4]: the magnitude of this effect was decreased; also recorded: no significant effects were observed

Clc1cccc(Cl)c1N=C1NCCN1 [clonidine]
mechanical hypersensitivity [5]: significantly attenuated mechanical hypersensitivity | time spent in the drug-paired chamber vs 4EKI sham ([6]; 4EKI SNI mice): no significant difference | more time in the clonidine-paired chamber vs WT sham ([6]; WT SNI female mice): ~30%

B1: IFN-β: Recombinant mouse IFN-β protein (protein, UniProt P01575 22-182, looked up)
Interferon beta: INYKQLQLQERTNIRKCQELLEQLNGKINLTYRADFKIPMEMTEKMQKSYTAFAIQEMLQNVFLVFRNNFSSTGWNETIVVRLLDELHQQTVFLKTVLEEKQEERLTWEMSSTALHLKSYYWRVQRYLKLMKYNSYAWMVVRAEIFRNFLIIRRLTRNFQN
hind paw mechanical hypersensitivity ([7]; female mice): increased hind paw mechanical hypersensitivity | mechanical hypersensitivity to von Frey filament stimulation ([7]; male mice): rapid mechanical hypersensitivity | thermal hypersensitivity ([8]; female mice): no significant changes | paw withdrawal latency to thermal stimulation ([8]; male mice): no significant changes | AKT phosphorylation ([3]; 300 U/mL): stimulated AKT phosphorylation | ERK and eIF4E phosphorylation ([3]; 300 U/mL): increase | downstream JAK/STAT signaling pathways ([3]; 300 U/mL): rapidly activated | BiP expression or signaling via PKR and downstream p-eIF2α ([3]; 300 U/mL, 1-6 h): did not modify | PKR phosphorylation ([3]; 300 U/mL, long exposure (24 h)): did not modify | mTOR or ribosomal protein S6 phosphorylation ([3]; 300 U/mL, time course of 6 h): did not observe any changes | phosphorylation of eIF4E (ICC) [9]: stimulated phosphorylation of eIF4E
